Laboratory results published in patent US6140362A, “Method for inhibiting the growth of mammalian cells” (Rohm and Haas Company, priority 1997, dated 2000).
Read-outs that look alike come from different tables or passages of the source.

Assays:
[1] = tested on: mouse lymphoma cell line L5178Y; test: Growth inhibition of mouse lymphoma cells (L5178Y), 48 h; format: cell-based; details: for inhibition at 2 µM: 2 micromolar; for inhibition at 4 µM: 4 micromolar; for inhibition at 10 µM: read-out: Inhibition of growth; for inhibition at 20 µM: 20 micromolar
Experimental: Effects of compounds on growth of mouse lymphoma cell line L5178Y, were determined as follows. Cells were grown in Fischer's medium (obtained from Life Technologies, Inc., Gaithersburg, Md.) containing 0.24 grams per liter (g/l) sodium pyruvate, 1.12 g/l surfactant (Pluronic F-68, from BASF Corporation, Parsippany, N.J.), and 10% by volume (10% v/v) heat-inactivated horse serum (obtained from Life Technologies, Inc) at 37° C. To 30 ml aliquots of cell suspension (2×10^4 cells per milliliter (mL)) in exponential growth phase were added test compounds dissolved in dimethylsulfoxide (DMSO) at various concentrations such that the final DMSO concentration in the mixtures was 0.25%. Tubes were gassed with 5% CO2 then incubated on a roller drum apparatus. After 48 hours the cells were treated with 0.1% trypsin (Life Technologies, Inc.,) for 10 minutes and counted in a Coulter Counter equipped with a 140 micrometer (μM) aperture. Percent inhibition of growth was calculated by comparing the number of cells in assays containing test compound with the number of cells in controls lacking the test compound.

Leukemia (SR) = test: Growth inhibition of human tumor cell lines: Leukemia (SR); format: cell-based; details: cell line A = Leukemia (SR), NCI testing
Experimental: (§1) Selected compounds were evaluated by the National Cancer Institute, Bethesda, Md. against 60 human tumor cell lines according to procedures described in Principles and Practices of Oncology, volume 3, issue number 10, pp. 1-12. Results of the testing against representative cell lines including the test compound number, and the GI50 values (μM) are set forth in Table 3. The GI50 value is the concentration required to inhibit cell growth by 50% as compared to untreated control cultures.

[2] = tested on: Nonsmall cell lung cancer (NCIH522); test: Growth inhibition of human tumor cell lines: Nonsmall cell lung cancer (NCIH522); format: cell-based; details: NCI-H522, cell line B = Nonsmall cell lung cancer (NCIH522), NCI testing
Experimental: as §1

[3] = tested on: Small cell lung cancer (DMS 114); test: Growth inhibition of human tumor cell lines: Small cell lung cancer (DMS 114); format: cell-based; details: cell line C = Small cell lung cancer (DMS 114), NCI testing
Experimental: as §1

Colon cancer (HCT116) = test: Growth inhibition of human tumor cell lines: Colon cancer (HCT116); format: cell-based; details: HCT-116, cell line D = Colon cancer (HCT116), NCI testing
Experimental: as §1

CNS cancer (SF539) = test: Growth inhibition of human tumor cell lines: CNS cancer (SF539); format: cell-based; details: SF-539, cell line E = CNS cancer (SF539), NCI testing
Experimental: as §1

Melanoma (SKMEL-2) = test: Growth inhibition of human tumor cell lines: Melanoma (SKMEL-2); format: cell-based; details: SK-MEL-2, cell line F = Melanoma (SKMEL-2), NCI testing
Experimental: as §1

Ovarian cancer (OVCAR8) = test: Growth inhibition of human tumor cell lines: Ovarian cancer (OVCAR8); format: cell-based; details: OVCAR-8, cell line G = Ovarian cancer (OVCAR8), NCI testing
Experimental: as §1

Renal cancer (CAKI1) = test: Growth inhibition of human tumor cell lines: Renal cancer (CAKI1); format: cell-based; details: CAKI-1, cell line H = Renal cancer (CAKI1), NCI testing
Experimental: as §1

tubulin = test: Inhibition of microtubule assembly; format: biochemical, calf; details: preincubated 1 h at 37° C.
Experimental: Compounds were evaluated for their ability to inhibit tubulin assembly into microtubules by comparing the extent of cold-reversible assembly in the presence of each test compound with controls lacking the test compound. Tubulin was isolated from calf brain tissue by two cycles of assembly/disassembly as described by Vallee, R. B. in Methods in Enzymology, vol. 134, pp. 89-104. Assay mixtures contained 1 mg/ml of purified tubulin in 1 M sodium glutamate, pH 6.6, 1 millimolar (mM) MgCl2, and the test compound, which was added as a solution in DMSO. The final concentration of DMSO in each assay was 2% (v/v). Assay mixtures were preincubated at 37° C. for 1 h, then chilled on ice for 5 min. Microtubule assembly was initiated by addition of guanosine triphosphate (0.1 mM), and incubation at 37° C. Assembly was followed turbidimetrically at 350 nm for 20 minutes (min) using a temperature-controlled cell in a Cary 2200 spectrophotometer. Since microtubules undergo depolymerization at 0° C., assembly was confirmed by measuring the reduction in turbidity following incubation for 30 min at 0° C. The difference in absorbance before and after incubation for 30 min at 0° C. (ΔA350) represents the extent of microtubule assembly. Inhibition of assembly was calculated by subtracting the (ΔA350) values for treatments with test compounds from the (ΔA350) for controls without test compound, and expressing this difference as a percentage of the (ΔA350) value for the control. Results including test compound number, test compound concentration in micromoles per liter (μM) and percent inhibition are set forth in Table 11.

CCC(C)(NC(=O)c1ccc(NC(=O)OC)cc1)C(=O)CCl (centres unmarked) [Compound 1]
inhibition at 2 µM ([1]; 48 hours): 92%

CCC(C)(NC(=O)c1cc(Cl)cc(C#N)c1)C(=O)CCl (centres unmarked) [Compound 3]
inhibition at 2 µM ([1]; 48 hours): 94%

CCC(C)(NC(=O)c1cc(Cl)cc(C=NOC)c1)C(=O)CCl (centres unmarked) [Compound 4]
inhibition at 2 µM ([1]; 48 hours): 95%
GI50 (Leukemia (SR)): 590 nM
GI50 [2]: 2140 nM
GI50 [3]: 1540 nM
GI50 (Colon cancer (HCT116)): 2580 nM
GI50 (CNS cancer (SF539)): 2310 nM
GI50 (Melanoma (SKMEL-2)): 3240 nM
GI50 (Ovarian cancer (OVCAR8)): 2620 nM
GI50 (Renal cancer (CAKI1)): 3070 nM
Percent inhibition of microtubule assembly (tubulin; 50 μM): 89.8%

CCC(C)(NC(=O)c1cc(C)cc(Br)c1)C(=O)CCl (centres unmarked) [Compound 5]
inhibition at 2 µM ([1]; 48 hours): 91%
Percent inhibition of microtubule assembly (tubulin; 50 μM): 88.7%

CCCC(NC(=O)c1cc(Cl)cc(Cl)c1)C(=O)C(Br)Br (centres unmarked) [Compound 6]
inhibition at 2 µM ([1]; 48 hours): 75%

CCC(C)(NC(=O)c1cccc(Br)c1)C(=O)C(Br)Br (centres unmarked) [Compound 7]
inhibition at 2 µM ([1]; 48 hours): 92%
GI50 (Leukemia (SR)): 2320 nM
GI50 [2]: 1080 nM
GI50 [3]: 1830 nM
GI50 (Colon cancer (HCT116)): 3390 nM
GI50 (CNS cancer (SF539)): 2290 nM
GI50 (Melanoma (SKMEL-2)): 2740 nM
GI50 (Ovarian cancer (OVCAR8)): 3010 nM
GI50 (Renal cancer (CAKI1)): 2820 nM
Percent inhibition of microtubule assembly (tubulin; 5 μM): 97.0%

CC(C)C(C)(NC(=O)c1cc(Cl)cc(Cl)c1)C(=O)C(Br)Br (centres unmarked) [Compound 8]
inhibition at 2 µM ([1]; 48 hours): 83%

CC(C)CC(C)(NC(=O)c1cc(Cl)cc(Cl)c1)C(=O)C(Br)Br (centres unmarked) [Compound 9]
inhibition at 2 µM ([1]; 48 hours): 97%

CCCCCC(C)(NC(=O)c1cc(Cl)cc(Cl)c1)C(=O)C(Br)Br (centres unmarked) [Compound 10]
inhibition at 2 µM ([1]; 48 hours): 96%

CCCC(C)(NC(=O)c1cc(Cl)cc(Cl)c1)C(=O)C(Br)Br (centres unmarked) [Compound 11]
inhibition at 2 µM ([1]; 48 hours): 88%

CCC(CC)(NC(=O)c1cc(Cl)cc(Cl)c1)C(=O)C(Br)Br [Compound 12]
inhibition at 2 µM ([1]; 48 hours): 85%

CCC(C)(NC(=O)c1cc(Cl)cc(Cl)c1)C(=O)C(Br)Br (centres unmarked) [Compound 13]
inhibition at 2 µM ([1]; 48 hours): 98%
GI50 (Leukemia (SR)): 280 nM
GI50 [2]: 280 nM
GI50 [3]: 240 nM
GI50 (Colon cancer (HCT116)): 1390 nM
GI50 (CNS cancer (SF539)): 1900 nM
GI50 (Melanoma (SKMEL-2)): 2080 nM
GI50 (Ovarian cancer (OVCAR8)): 1820 nM
GI50 (Renal cancer (CAKI1)): 1920 nM
Percent inhibition of microtubule assembly (tubulin; 5 μM): 90.9%

CC(C)(NC(=O)c1cc(Cl)cc(Cl)c1)C(=O)C(Cl)Br (centres unmarked) [Compound 15]
inhibition at 2 µM ([1]; 48 hours): 90%
GI50 (Leukemia (SR)): 2850 nM
GI50 [2]: 1290 nM
GI50 [3]: 6650 nM
GI50 (Colon cancer (HCT116)): 10400 nM
GI50 (CNS cancer (SF539)): 10800 nM
GI50 (Melanoma (SKMEL-2)): 16600 nM
GI50 (Ovarian cancer (OVCAR8)): 12100 nM
GI50 (Renal cancer (CAKI1)): 10800 nM
Percent inhibition of microtubule assembly (tubulin; 50 μM): 94.6%

CC(C)(NC(=O)c1ccccc1)C(=O)C(Br)Br [Compound 16]
inhibition at 2 µM ([1]; 48 hours): 98%

CCC(C)(NC(=O)c1cc(Cl)c(N)c(C=NOC)c1)C(=O)CCl (centres unmarked) [Compound 18, 4-amino-3-chloro-5-methoxyiminomethyl-N-(3-chloro-1-ethyl-1-methyl-2-oxopropyl)benzamide]
inhibition at 2 µM ([1]; 48 hours): 94%

CCC(C)(NC(=O)c1cccc(C#N)c1)C(=O)CCl (centres unmarked) [Compound 20]
inhibition at 4 µM ([1]; 48 hours): 96%

CCC(C)(NC(=O)c1cc(Br)c(C)c(Br)c1)C(=O)CCl (centres unmarked) [Compound 21]
inhibition at 4 µM ([1]; 48 hours): 97%

CCC(C)(NC(=O)c1cccc(NC(=O)OC)c1)C(=O)CCl (centres unmarked) [Compound 22]
inhibition at 10 µM ([1]; 10 micromolar, 48 hours): 96%

CCC(C)(NC(=O)c1cccc(C=NOC)c1)C(=O)CCl (centres unmarked) [Compound 24]
inhibition at 10 µM ([1]; 10 micromolar, 48 hours): 96%

CCC(C)(NC(=O)c1cc(C)cc(Cl)c1)C(=O)CCl (centres unmarked) [Compound 25]
inhibition at 10 µM ([1]; 10 micromolar, 48 hours): 95%
Percent inhibition of microtubule assembly (tubulin; 50 μM): 30.9%

CC(C)(NC(=O)c1cc(Cl)cc(Cl)c1)C(=O)CN=C=S [Compound 27]
inhibition at 10 µM ([1]; 48 h): 61%

CC(C)(NC(=O)c1cc(Cl)cc(Cl)c1)C(=O)CBr [Compound 29]
inhibition at 10 µM ([1]; 10 micromolar, 48 hours): 95%

CCC(C)(NC(=O)c1cc(Cl)c(C)c(Br)c1)C(=O)CCl (centres unmarked) [Compound 30]
inhibition at 20 µM ([1]; 48 hours): 97%

CCC(C)(NC(=O)c1cc(Cl)c(F)c(Cl)c1)C(=O)CCl (centres unmarked) [Compound 31]
inhibition at 20 µM ([1]; 48 hours): 97%

CCC(C)(NC(=O)c1cc(Cl)c(C)c(Cl)c1)C(=O)CCl (centres unmarked) [Compound 32]
inhibition at 20 µM ([1]; 48 hours): 96%

CCC(C)(NC(=O)c1cc(Cl)c(Cl)c(Cl)c1)C(=O)CCl (centres unmarked) [Compound 33]
inhibition at 20 µM ([1]; 48 hours): 94%
Percent inhibition of microtubule assembly (tubulin; 50 μM): 12.2%
